Values after ≈ are worked out from the molar mass of the structure shown.
Columns and labels:
E. faecium E7403 = test: MIC assay; type: cell-based, Enterococcus faecium
Procedure, shortened: (§1)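 We measured MICs by CLSI broth microdilution with polysorbate 80 (0.002%) in TSB, a 10^6 CFU/mL inoculum, and a 24 h, 37 °C shaken incubation.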

E. faecium E8237 = test: MIC assay; type: cell-based, Enterococcus faecium
Procedure, shortened: as §1

E. faecium E7424 = test: MIC assay; type: cell-based, Enterococcus faecium
Procedure, shortened: as §1

E. faecium E8218 = test: MIC assay; type: cell-based, Enterococcus faecium
Procedure, shortened: as §1

E. faecium E7413 = test: MIC assay; type: cell-based, Enterococcus faecium
Procedure, shortened: as §1

E. faecium E6016 = test: MIC assay; type: cell-based, Enterococcus faecium
Procedure, shortened: as §1

E. faecium E0745 = test: MIC assay; type: cell-based, Enterococcus faecium
Procedure, shortened: as §1

E. faecium E7464 = test: MIC assay; type: cell-based, Enterococcus faecium
Procedure, shortened: as §1

E. faecium E0300 = test: MIC assay; type: cell-based, Enterococcus faecium
Procedure, shortened: as §1

E. faecium E0013 = test: MIC assay; type: cell-based, Enterococcus faecium
Procedure, shortened: as §1

E. faecium E1130 = test: MIC assay; type: cell-based, Enterococcus faecium
Procedure, shortened: as §1

E. faecium E0506 = test: MIC assay; type: cell-based, Enterococcus faecium
Procedure, shortened: as §1

E. faecium EO321 = test: MIC assay; type: cell-based, Enterococcus faecium
Procedure, shortened: as §1

E. faecium E7329 = test: MIC assay; type: cell-based, Enterococcus faecium
Procedure, shortened: as §1

E. faecium E7401 = test: MIC assay; type: cell-based, Enterococcus faecium
Procedure, shortened: as §1

E. faecium E2297 = test: MIC assay; type: cell-based, Enterococcus faecium
Procedure, shortened: as §1

E. faecium E8235 = test: MIC assay; type: cell-based, Enterococcus faecium
Procedure, shortened: as §1

E. faecium E0333 = test: MIC assay; type: cell-based, Enterococcus faecium
Procedure, shortened: as §1

E. faecium E980 = test: MIC assay; type: cell-based, Enterococcus faecium
Procedure, shortened: as §1

E. faecalis E1246 = test: MIC assay; type: cell-based, Enterococcus faecalis
Procedure, shortened: as §1

[1] = system: panel of 31 vancomycin-resistant E. faecium strains; test: MIC assay, MIC50/MIC90 over panel; type: cell-based, Enterococcus faecium
Description: The antibacterial activity of the compounds was tested against a panel of bacteria, including Gram-positive bacteria (S. aureus ATCC29213, S. aureus USA300, S. aureus LIM-2, NR-45881, S. aureus HIP13419, NR-46413, E. faecium E155, E. faecium E7314, E. faecium E980, E. faecalis E1246, E. faecalis E7406 and S. pneumonia 153). The antibacterial activity of the compounds was further tested against S. aureus NY-155, NR-46236, S. aureus HIP12864, NR-46074, S. aureus 880 (BR-VRSA), NR-49120, E. faecalis E1246, E. faecalis E7604, as well as some Gram-negative bacteria (Escherichia coli and Klebsiella pneumoniae). Minimum inhibitory concentrations (MICs) in μg/mL were performed according to the CLSI guidelines. From glycerol stocks, bacterial strains were cultured on blood agar plates and incubated at 37° C. for 18 h. A single colony was transferred to tryptic soy broth (TSB) with 0.002% polysorbate 80 (p80). For the Enterococcus, VISA and VRSA strains, the cultures were grown at 37° C. until the optical density of the suspension reached a level equivalent to the 0.5 McFarland standard. The bacterial suspensions were diluted in TSB with 0.002% p80 to reach a bacterial cell density of 10^6 CFU/mL. In case of the other (vancomycin-sensitive) S. aureus strains, the direct colony suspension method was used. For these strains, after transfer of the colonies to TSB with 0.002% p80, they were immediately diluted to 10^6 CFU/mL, instead of incubated prior to this dilution. In the case of S. pneumonia, direct colony suspension was used by immediately suspending multiple colonies from fresh blood agar plates in TSB+0.002% p80 to an OD600 of 0.5 and subsequent dilution to 10^6 CFU mL^−1 in TSB+0.002% p80+5% lysed horse blood. Antibiotic dilutions for this strains were also made in TSB+0.002% p80+5% lysed horse blood. Both agar and microplates containing S. pneumonia were incubated at 37° C. with 5% CO2 for 24 h with constant shaking (600 rpm). […] The cultures were grown to exponential phase (OD600=0.5) at 37° C. […] In polypropylene 96-well microtiter plates, test compounds were added in biological triplicates and serial diluted 2-fold by transfer and mixing from one well to the next to achieve a final volume of 50 μL per well. An equal volume of bacterial suspension (10^6 CFU mL^−1) was added to the wells. The plates were sealed with breathable membranes and incubated at 37° C. for 24 h with constant shaking (600 rpm). In polypropylene microtiter plates, 100 μL of the test compounds was added to the first row in biological triplicates, and 50 μL of media was added to the other wells. The compounds were subjected to serial dilution by transfer and mixing of 50 μL from one well to the next. Subsequently, 50 μL of bacterial suspension (10^6 CFU/mL) was added to the wells. The plates were sealed with breathable membranes and incubated at 37° C. for 24 h with constant shaking (600 rpm). Positive growth control consisted of wells with bacterial suspension and without antibiotic. Negative growth control consisted of solely media without bacterial suspension or antibiotic. The MICs were determined from the median of a minimum of triplicates.

[2] = E. faecalis E1246 VRE (vanA), Table 9
[3] = panel of 31 vancomycin-resistant E. faecium strains

Q: Which results are given for `CN[C@H](CC(C)C)C(=O)N[C@H]1C(=O)N[C@@H](CC(N)=O)C(=O)N[C@H]2C(=O)N[C@H]3C(=O)N[C@H](C(=O)N[C@H](C(=O)O)c4cc(O)cc(O)c4-c4cc3ccc4O)[C@H](O)c3ccc(c(Cl)c3)Oc3cc2cc(c3O[C@@H]2O[C@H](CO)[C@@H](O)[C@H](O)[C@H]2O[C@H]2C[C@](C)(NCc3ccc(N=C(N)NC/C=C(\C)CCC=C(C)C)cc3)[C@H](O)[C@H](C)O2)Oc2ccc(cc2Cl)[C@H]1O` [Compound 14]?
A: MIC (E. faecium E7403; E. faecium E7403, VanB): ≤0.008 µg/mL; MIC (E. faecium E8237; E. faecium E8237, VanA): 4 µg/mL (≈ 2.31 µM); MIC (E. faecium E7424; E. faecium E7424, VanB): ≤0.008 µg/mL; MIC (E. faecium E8218; E. faecium E8218, VanB): ≤0.008 µg/mL; MIC (E. faecium E7413; E. faecium E7413, VanA): 8 µg/mL (≈ 4.62 µM); MIC (E. faecium E6016; E. faecium E6016, VanA): 2 µg/mL (≈ 1.15 µM); MIC (E. faecium E0745; E. faecium E0745, VanA): 1 µg/mL (≈ 0.577 µM); MIC (E. faecium E7464; E. faecium E7464, VanB): ≤0.008 µg/mL; MIC (E. faecium E0300; E. faecium E0300, VanA): 4 µg/mL (≈ 2.31 µM); MIC (E. faecium E0013; E. faecium E0013, VanA): 2 µg/mL (≈ 1.15 µM); MIC (E. faecium E1130; E. faecium E1130, VanA): ≤0.008 µg/mL; MIC (E. faecium E0506; E. faecium E0506, VanA): 2 µg/mL (≈ 1.15 µM); MIC (E. faecium EO321; E. faecium EO321, VanA): 8 µg/mL (≈ 4.62 µM); MIC (E. faecium E7329; E. faecium E7329, VanA): ≤0.008 µg/mL; MIC (E. faecium E7401; E. faecium E7401, VanB): ≤0.008 µg/mL; MIC (E. faecium E2297; E. faecium E2297, VanA): 2 µg/mL (≈ 1.15 µM); MIC (E. faecium E8235; E. faecium E8235, VanB): ≤0.008 µg/mL; MIC (E. faecium E0333; E. faecium E0333, VanA): 8 µg/mL (≈ 4.62 µM); MIC (E. faecium E980; E. faecium E980 VSE): ≤0.007812 µg/mL; MIC (E. faecalis E1246; E. faecalis E1246 VRE (VanA), Table 7): 8 µg/mL (≈ 4.62 µM); MIC (E. faecalis E1246; [2]): 8 µg/mL (≈ 4.62 µM); MIC50 [1, 3]: 1 µg/mL (≈ 0.577 µM); MIC90 [1, 3]: 8 µg/mL (≈ 4.62 µM)

Q: With `CN[C@H](CC(C)C)C(=O)N[C@H]1C(=O)N[C@@H](CC(N)=O)C(=O)N[C@H]2C(=O)N[C@H]3C(=O)N[C@H](C(=O)N[C@H](C(=O)O)c4cc(O)cc(O)c4-c4cc3ccc4O)[C@H](O)c3ccc(c(Cl)c3)Oc3cc2cc(c3O[C@@H]2O[C@H](CO)[C@@H](O)[C@H](O)[C@H]2O[C@H]2C[C@](C)(N)[C@H](O)[C@H](C)O2)Oc2ccc(cc2Cl)[C@H]1O` [Vancomycin, reference compound] as the compound, how does the MIC (E. faecium E7403; Enterococcus faecium, E7403) read?
A: Its MIC is 16 µg/mL (≈ 11 µM).

Q: What about the MIC (E. faecium E8237; Enterococcus faecium, E8237) of the same compound?
A: The MIC was > 128 µg/mL.

Q: And the MIC (E. faecium E7424; Enterococcus faecium, E7424)?
A: The MIC was 4 µg/mL (≈ 2.76 µM).

Q: And the MIC (E. faecium E8218; Enterococcus faecium, E8218)?
A: The MIC was 8 µg/mL (≈ 5.52 µM).

Q: What about the MIC (E. faecium E7413; Enterococcus faecium, E7413) of the same compound?
A: Its MIC is > 128 µg/mL.

Q: And the MIC (E. faecium E6016; Enterococcus faecium, E6016)?
A: The MIC was > 128 µg/mL.

Q: And the MIC (E. faecium E0745; Enterococcus faecium, E0745)?
A: Its MIC is > 128 µg/mL.

Q: What about the MIC (E. faecium E7464; Enterococcus faecium, E7464) of the same compound?
A: Its MIC is 16 µg/mL (≈ 11 µM).

Q: What about the MIC (E. faecium E0300; Enterococcus faecium, E0300) of the same compound?
A: The MIC was > 128 µg/mL.

Q: What about the MIC (E. faecium E0013; Enterococcus faecium, E0013) of the same compound?
A: The MIC was > 128 µg/mL.

Q: What about the MIC (E. faecium E1130; Enterococcus faecium, E1130) of the same compound?
A: Its MIC is > 128 µg/mL.

Q: What about the MIC (E. faecium E0506; Enterococcus faecium, E0506) of the same compound?
A: Its MIC is > 128 µg/mL.

Q: What about the MIC (E. faecium EO321; Enterococcus faecium, EO321) of the same compound?
A: The MIC was > 128 µg/mL.

Q: What about the MIC (E. faecium E7329; Enterococcus faecium, E7329) of the same compound?
A: Its MIC is 1 µg/mL (≈ 0.69 µM).

Q: And the MIC (E. faecium E7401; Enterococcus faecium, E7401)?
A: The MIC was 16 µg/mL (≈ 11 µM).

Q: What about the MIC (E. faecium E2297; Enterococcus faecium, E2297) of the same compound?
A: The MIC was > 128 µg/mL.

Q: What about the MIC (E. faecium E8235; Enterococcus faecium, E8235) of the same compound?
A: The MIC was 16 µg/mL (≈ 11 µM).

Q: What about the MIC (E. faecium E0333; Enterococcus faecium, E0333) of the same compound?
A: Its MIC is > 128 µg/mL.

Q: And the MIC (E. faecium E980; Enterococcus faecium, E980)?
A: The MIC was 0.5 µg/mL (≈ 0.345 µM).

Q: What about the MIC (E. faecalis E1246; [2]) of the same compound?
A: Its MIC is >128 µg/mL.

Q: And the MIC (E. faecalis E1246; Enterococcus faecalis, VRE)?
A: Its MIC is > 128 µg/mL.

Q: And the MIC50 ([1]; Enterococcus faecium)?
A: The MIC50 was 128 µg/mL (≈ 88.3 µM).

Q: What about the MIC90 ([1]; Enterococcus faecium) of the same compound?
A: The MIC90 was 128 µg/mL (≈ 88.3 µM).

Reference: patent US20230174584A1, “Antibiotic Compounds” (priority 2019, published 2023)
